Test results taken from paper PMC9313812, “The Pseudo‐Natural Product Rhonin Targets RHOGDI” (Angewandte Chemie (International Ed. in English), 2022).
Converted amounts (≈) assume the structure as drawn.

Experiments:
RHOGDI1-RAC1 interaction = target: T1, RHOGDI1-RAC1 interaction (Homo sapiens, UniProt P52565); experiment: Surface plasmon resonance: RHOGDI1-mediated displacement of GerGer-RAC1-GDP from immobilized liposomes; format: biochemical; details: for Effect on kinetics of geranylgeranylated RAC1 extraction by RHOGDI1 (in words): SPR
T1 construct: GST; made in house; host or cells: RHOGDI1: E. coli; GerGer-RAC1: insect cells (TNAO38)
T1 sequence (P52565 1-204): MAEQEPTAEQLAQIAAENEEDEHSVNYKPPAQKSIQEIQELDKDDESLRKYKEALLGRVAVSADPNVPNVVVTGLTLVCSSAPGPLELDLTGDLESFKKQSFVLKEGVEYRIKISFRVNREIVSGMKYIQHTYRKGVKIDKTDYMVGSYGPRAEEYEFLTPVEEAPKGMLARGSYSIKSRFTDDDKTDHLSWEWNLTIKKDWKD
Method: RHOGDI1 displaced liposome -bound RAC1 from the surface of L1 chip with a koff of 0.016 […]
bound RAC1. Calculated rate constants by mono-exponential fitting of RU decays were 0.02 and 0.032 s-1 for RHOGDI1-mediated RAC1 displacement from the liposomes in the presence of 7a and 7d, respectively. (d) Competition-based fluorescence polarization experiments were performed by titration of 7a against 10 nM fluorescein-labelled atorvastatin and GST-PDEδ.
(e) Fluorescence polarization experiment using 10 nM probe 10 and titration of PDEδ.
(§1) (1 picture or pasted object on this page, not shown here)
Surface plasmon resonance (SPR)
Biacore® X100 instrument (Biacore, now GE Healthcare) was used to analyze the effect of 7a on the GerGer-RAC1-GDP and RHOGDI1 interaction. Liposomes suspended in SPR buffer (20 mM HEPES, pH 7.4, 50 mM NaCl, 5 mM MgCl2, 3 mM DTT) were immobilized by injecting 0.5 mM liposomes with flowrate of 5 µL/min on the surface of a Pioneer® L1 sensor chip (GE Healthcare) for the period of 900 s, as indicated by a constant signal. Unbound liposomes were removed by passing the buffer and 10 mM NaOH with flowrate of 5 µL/min for 30 s over the sensor chip. Buffer containing 15 µM GerGer-RAC1-GDP was passed with flowrate of 5 µL/min over the immobilized liposomes to facilitate the loading of GerGer-RAC1-GDP on to the liposomes. The effect of compounds on the association of GerGer-RAC1-GDP with liposomes and the resulting dissociation of GerGer-RAC1 upon passing 25 µM of RHOGDI1 was monitored by the change in the response unit signal.
Protein expression and purification
RHOGDI1 delta15, RHOGDI1 delta25, RHOGDI1-3 were produced in E. coli (XL1-Blue) as a GST recombinant protein as described previously.[9] In summary, protein were expressed in E.coli BL21 upon addition of IPTG overnight. Cell were collected and lysed in a lysis buffer, containing 30 mM Tris-NaOH pH 7.4, 150 mM NaCl, 1 mM DTT, and 5 mM MgCl2. Cells were further lysed using sonication. […]

[1] = Kinetic solubility determination; format: physicochemical; details: for solubility kinetic: aqueous buffer, pH 7.4, aqueous buffer, kinetic from dmso stock, Table S9
Method: as §1
Each sample was tested in triplicate.

| Rate constant of RHOGDI1-mediated RAC1 displacement from liposomes in presence of compound (RHOGDI1-RAC1 interaction; 25 µM RHOGDI1, mono-exponential fitting of RU decays) [s⁻¹] | Effect on kinetics of geranylgeranylated RAC1 extraction by RHOGDI1 (in words) (RHOGDI1-RAC1 interaction) | Solubility (in words) [1] | Compound | solubility kinetic [1] [µM] |
| --- | --- | --- | --- | --- |
| 0.032 | did not | – | COC(=O)C1(CCC(=O)c2ccc(F)cc2)N=C(c2ccc(Br)cc2)C2C(=O)N(C)C(=O)C21 (stereo not drawn) [7d] | – |
| – | – | – | COC(=O)C1(C(CC(=O)c2cccnc2)c2ccccc2)N=C(c2ccc(Br)cc2)C2C(=O)N(C)C(=O)C21 (stereo not drawn) [7l] | 47.3 (≈ 27.2 µg/mL) |
| – | slowed down the kinetics | limited solubility | COC(=O)C1(C(CC(=O)c2ccccc2)c2ccccc2)N=C(c2ccc(Br)cc2)C2C(=O)N(C)C(=O)C21 (stereo not drawn) [7a] | 5.7 (≈ 3.27 µg/mL) |
